Values quoted from earlier work in patent US20050137807A1, “Method of visualization of the ADME properties of chemical substances” (priority 2003, published 2005).

Key:
[1] = cited from earlier work
[2] = cited from earlier work; remark: listed apart in the source
[3] = in vivo; cited from earlier work

In the case of COC(=O)c1ccc(C(F)(F)F)nc1S(=O)(=O)NC(=O)Nc1nc(OC)cc(OC)n1 [flupyrsulfuron-methyl-sodium], the logP [1] is given as 1.3 and the pKa [2] is given as 4.9.
In the case of COC(=O)c1c(Cl)nn(C)c1S(=O)(=O)NC(=O)Nc1nc(OC)cc(OC)n1 [halosulfuron-methyl], the logP [1] is given as 2.9 and the pKa [2] is given as 3.44.
In the case of COc1nc(C)nc(=NC(=O)NS(=O)(=O)c2ccccc2C(=O)O)[nH]1 [metsulfuron], the logP [1] is given as 2 and the pKa [2] is given as 3.3.
For CON(C)C(=O)Nc1ccc(Cl)cc1 [monolinuron], the logP [1] is given as 2.2 and the pKa [2] is given as 13.8.
For COc1cc(OC)nc(NC(=O)NS(=O)(=O)c2ncccc2C(=O)N(C)C)n1 [nicosulfuron], the logP [1] is given as 0.5 and the pKa [2] is given as 4.6.
For O=C(Nc1nc(OC(F)F)cc(OC(F)F)n1)NS(=O)(=O)c1ccccc1C(=O)O [primisulfuron], the logP [1] is given as 0.06 and the pKa [2] is given as 3.47.
For O=C(O)c1c(Cl)ccc2cc(Cl)cnc12 [quinclorac], the logP [1] is listed as 3.6 and the pKa [2] is listed as 4.34.
In the case of COC(=O)c1ccccc1S(=O)(=O)NC(=O)Nc1nc(C)cc(C)n1 [sulfometuron-methyl], the logP [1] is given as 1.4 and the pKa [2] is given as 5.2.
In the case of Cc1cc(C)nc(NC(=O)NS(=O)(=O)c2ccccc2C(=O)O)n1 [sulfometuron], the logP [1] is given as −0.51 and the pKa [2] is given as 5.2.
For COc1nc(C)nc(NC(=O)NS(=O)(=O)c2ccsc2C(=O)O)n1 [thifensulfuron], the logP [1] is listed as 0.02 and the pKa [2] is listed as 4.
For COc1nc(C)nc(NC(=O)NS(=O)(=O)c2ccccc2OCCCl)n1 [triasulfuron], the logP [1] is listed as 1.6 and the pKa [2] is listed as 4.64.
In the case of COc1nc(C)nc(N(C)C(=O)NS(=O)(=O)c2ccccc2C(=O)O)n1 [tribenuron], the logP [1] is listed as −0.44 and the pKa [2] is listed as 5.
For itraconazoles, the passive oral absorption [3] is listed as “can be passively absorbed well”.
